In Sander's compilation of Henry's law constants (doi:10.1016/s0378-3812(99)00193-4):

Assay: Henry solubility constant Hcp at 298.15 K (mol/(m3 Pa))
Settings: reference: Ryu and Park (1999)

| Compound | Henry solubility constant Hcp |
| --- | --- |
| ClC=C(Cl)Cl [trichloroethene] | 0.00095 |
| CCCCc1ccccc1 [butylbenzene] | 0.00074 |
| ClC(Cl)=C(Cl)Cl [tetrachloroethene] | 0.00053 |
| Cc1ccc(C)cc1 [1,4-dimethylbenzene] | 0.0014 |
| ClC(Cl)(Cl)Cl [tetrachloromethane] | 0.00038 |
| Cc1ccccc1 [methylbenzene] | 0.0015 |
| Clc1ccccc1 [chlorobenzene] | 0.0019 |

Now from value to compound:

| Henry solubility constant Hcp | Compound |
| --- | --- |
| 3.4e-06 | CCCCCCCC [octane] |
| 2.2e-06 | CCCCCCCCC [nonane] |
| 6.1e-06 | CCCCCC [hexane] |
| 0.0041 | ClCCl [dichloromethane] |
| 0.0011 | CCc1ccccc1 [ethylbenzene] |
| 0.0017 | c1ccccc1 [benzene] |
| 0.00061 | CCCCCc1ccccc1 [pentylbenzene] |
| 4.5e-06 | CCCCCCC [heptane] |
